One assay has as its target T1, NEP (Rattus norvegicus, UniProt P07861).
T1 construct: incubations of membrane and fresh tissue slice preparations from nervous tissues; from tissue; host or cells: dorsal spinal cord of male Wistar rats (fresh slices or 100 000 x g membrane fraction)
T1 sequence (P07861 1-750): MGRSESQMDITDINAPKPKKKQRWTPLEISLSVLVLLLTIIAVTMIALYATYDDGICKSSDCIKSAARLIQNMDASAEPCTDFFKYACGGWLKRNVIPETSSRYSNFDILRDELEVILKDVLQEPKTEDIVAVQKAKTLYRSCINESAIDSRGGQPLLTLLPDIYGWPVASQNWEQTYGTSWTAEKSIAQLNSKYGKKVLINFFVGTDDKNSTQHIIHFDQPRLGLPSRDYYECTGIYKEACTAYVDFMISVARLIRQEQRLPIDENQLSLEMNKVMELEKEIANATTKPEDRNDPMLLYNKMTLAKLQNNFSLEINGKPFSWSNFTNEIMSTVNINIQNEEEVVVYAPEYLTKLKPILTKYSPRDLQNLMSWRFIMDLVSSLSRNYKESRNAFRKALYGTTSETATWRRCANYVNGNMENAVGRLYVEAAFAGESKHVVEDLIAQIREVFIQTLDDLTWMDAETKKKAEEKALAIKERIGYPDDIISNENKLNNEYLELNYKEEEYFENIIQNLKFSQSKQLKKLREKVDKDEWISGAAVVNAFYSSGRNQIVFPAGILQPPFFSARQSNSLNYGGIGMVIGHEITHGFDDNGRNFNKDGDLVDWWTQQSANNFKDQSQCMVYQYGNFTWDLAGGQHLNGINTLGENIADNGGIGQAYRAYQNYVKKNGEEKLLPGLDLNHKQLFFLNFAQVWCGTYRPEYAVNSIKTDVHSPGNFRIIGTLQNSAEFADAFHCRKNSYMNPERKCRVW
The assay can be described thus: 3H-Substance P hydrolysis by rat spinal cord slices. Type of assay: biochemical. The settings on record: 10 μM combined with GEMSA (10 μM) and DPPIV inhibitor (10 μM), 25° C., read-out: inhibition of Substance P degradation. How it is done:
For the experiments of analysis of the NEP peptidase activity, an ex vivo model using incubations of membrane and fresh tissue slice preparations from nervous tissues that are known to be appropriate for exploring NEP peptidase activity: i.e. the dorsal zone of rat spinal cord, was first developed. […] (NEN, 12.5-25 nM) were used.
The objective was to measure the NEP-specific endoproteolysis of these substrates.

In assay [1] the target is T2, purified rabbit renal NEP (Oryctolagus cuniculus, UniProt P08049).
T2 construct: purified rabbit renal NEP; from tissue; host or cells: rabbit kidney (purified enzyme)
T2 sequence (P08049 1-750): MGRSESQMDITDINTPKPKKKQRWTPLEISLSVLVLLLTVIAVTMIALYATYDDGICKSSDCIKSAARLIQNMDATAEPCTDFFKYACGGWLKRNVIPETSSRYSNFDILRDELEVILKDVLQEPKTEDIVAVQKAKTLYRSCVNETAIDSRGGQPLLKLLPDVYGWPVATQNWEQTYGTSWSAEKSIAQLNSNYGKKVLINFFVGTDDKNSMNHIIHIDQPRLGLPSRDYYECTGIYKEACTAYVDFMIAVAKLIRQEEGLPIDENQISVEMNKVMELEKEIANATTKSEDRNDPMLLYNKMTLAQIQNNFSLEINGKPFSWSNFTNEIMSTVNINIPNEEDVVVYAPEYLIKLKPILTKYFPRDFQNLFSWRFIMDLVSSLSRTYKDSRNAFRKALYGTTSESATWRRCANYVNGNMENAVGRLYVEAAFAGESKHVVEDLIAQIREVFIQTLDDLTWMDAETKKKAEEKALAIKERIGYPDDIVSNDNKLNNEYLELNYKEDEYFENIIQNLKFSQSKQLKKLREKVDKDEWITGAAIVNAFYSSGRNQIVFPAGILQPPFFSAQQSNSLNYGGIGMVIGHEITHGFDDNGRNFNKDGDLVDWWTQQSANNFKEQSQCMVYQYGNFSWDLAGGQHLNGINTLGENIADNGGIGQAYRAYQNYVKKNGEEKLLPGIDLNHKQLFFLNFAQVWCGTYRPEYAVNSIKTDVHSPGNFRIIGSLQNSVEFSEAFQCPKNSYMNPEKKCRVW
Put plainly: Substance P catabolism by purified rabbit renal NEP. Type of assay: biochemical. The settings on record: substance P as substrate, read-out: inhibition of substance P catabolism by the soluble enzyme.

A further assay deals with male SPF Wistar/AF rats. The assay can be described thus: Aversive light stimulus avoidance test (ALSAT). The assay is classed as in vivo, rat. The settings on record: 50 μg/kg, I.V.; for Total number of times the two levers were pressed / Number of times AL pressed / Number of times IL pressed: mean ± SEM; for Number of times AL pressed: active lever; for Number of times IL pressed: inactive lever. How it is done:
Twenty four male SPF Wistar/AF rats weighing from 300 to 320 g were used. Upon reception, the rats were weighed, marked and distributed, in groups of 3, into F-type polycarbonate cages. The animals were housed in an air-conditioned animal house at a temperature of 22-24° C. Food and drink was available to the rats ad libitum. They were subjected to a 12-hour light/dark cycle (light from 8 pm to 8 am).
After a period of familiarization with the laboratory conditions of one week, the 24 rats were randomly divided into 2 groups (n=12). The rats from the various groups were all handled in the same way and under the same conditions.
The rat is placed in the cage for 20 minutes and the number of times each lever is pressed is counted during the experiment.
This model uses the aversion of the rat to a brightly lit environment. During the familiarization session and the learning session, the rat learns to control the aversive light environment of the test device in the context of operant conditioning: the animal learns to press the active lever in order to obtain periods of darkness.
The learning test is made up over two sessions: • Session 1, familiarization with the experimental device (day 1); • Session 2, learning test (day 2).
The QHNPR (SEQ ID NO: 2) peptide is suspended in a proportion of 500 μg per 5 ml of 0.01 N acetic acid, and then diluted with PBS in order to be administered at the dose of 50 μg/kg, via the i.v. route, in the dorsal caudal vein of the rat, 1 minute before the test.
A two-sided probability unpaired t-test was used to compare the lever-pressing activity of the two groups of rats.
The results are expressed as mean±standard error of the mean (SEM).

The structures appear in SMILES notation. Where a SMILES comes first, the peptide text is derived from it. Some results are limits rather than exact numbers.

The term inhibition denotes the share of the control response that was lost under treatment. Consider `N=C(N)NCCC[C@H](NC(=O)[C@@H]1CCCN1C(=O)[C@H](CC(N)=O)NC(=O)[C@H](Cc1c[nH]cn1)NC(=O)[C@@H](N)CCC(N)=O)C(=O)O` [sialorphin, Gln-His-Asn-Pro-Arg] (H-QHNPR-OH; N-terminus and C-terminus assumed), for which the inhibition at 10 µM on NEP is above 90%. In assay [1], the inhibition at 5 µM is 46%. Further, the “Total number of times the two levers were pressed” value is reported as 10.08 ± 1.98 in the assay with male SPF Wistar/AF rats (Session 1, 1 minute before the test) and 5.25 ± 5.09 with male SPF Wistar/AF rats (Session 2). Further, the results for the “Number of times AL pressed” value with male SPF Wistar/AF rats (Session 1) and in the assay on male SPF Wistar/AF rats (Session 2) were 4.83 ± 1.02 and 2.67 ± 0.47, respectively. Moreover, the “Number of times IL pressed” value in the assay on male SPF Wistar/AF rats (Session 1) is given as 5.25 ± 1.14; in the assay with male SPF Wistar/AF rats (Session 2) it was 2.58 ± 0.94. Moreover, the “Distinction between the levers” value in the assay on male SPF Wistar/AF rats (both test sessions) is reported as “no distinction between the two levers”.

The values are drawn from patent US7625713B2, “Process for identifying a ligand that binds to the NEP binding site for the SMR1 pentapeptide” (Institut Pasteur, priority 2000, dated 2009).
